From ChEMBL document CHEMBL4420076, “Amylin and calcitonin receptor agonist” (2017)
Numbered stars: 1 amine (or outer) side, 2 acyl side, 3 side chain; on linkers, the order of the positions; unused ones are H or OH. Peptide text beside a SMILES is read from it. * marks the point of attachment. C20 diacid = O=C(O)CCCCCCCCCCCCCCCCCCC(=O)*; C18 diacid = O=C(O)CCCCCCCCCCCCCCCCC(=O)*; γGlu = O=C(O)[C@H](CCC(=O)[*:2])N[*:1]

Columns and labels:
[1] = Solubility in 100 mM glycylglycine buffer at pH 3.0 incubated for 18 hrs by UPLC analysis; format: physicochemical
[2] = Stability in pH 7.5 buffer assessed as lag time for fibril formation at 1 uM by Thioflavin T based fluorescence assay; format: physicochemical; conditions: pH 7.5, 1 µM
[3] = Solubility in 100 mM glycylglycine buffer at pH 5.0 incubated for 18 hrs by UPLC analysis; format: physicochemical
[4] = Solubility in 100 mM bistrispropane buffer at pH 7.0 incubated for 18 hrs by UPLC analysis; format: physicochemical
[5] = Solubility in 100 mM glycylglycine buffer at pH 4.0 incubated for 18 hrs by UPLC analysis; format: physicochemical
[6] = Stability in pH 7.5 buffer assessed as compound recovery at 1 uM by Thioflavin T based fluorescence assay; format: physicochemical; conditions: read-out: Drug recovery
[7] = Solubility in 100 mM bistrispropane buffer at pH 6.5 incubated for 18 hrs by UPLC analysis; format: physicochemical
[8] = Solubility in 100 mM bistrispropane buffer at pH 6.0 incubated for 18 hrs by UPLC analysis; format: physicochemical
[9] = Solubility in 100 mM bistrispropane buffer at pH 7.5 incubated for 18 hrs by UPLC analysis; format: physicochemical
[10] = Solubility in 100 mM bistrispropane buffer at pH 8.0 incubated for 18 hrs by UPLC analysis; format: physicochemical
[11] = target: T1, Amylin receptor AMY3; CALCR/RAMP3 (Homo sapiens, UniProt O60896+P30988); experiment: Displacement of [125I]-labeled rat amylin from human amylin receptor expressed in BHK tkts13 whole cells co-expressing RAMP3 incubated for 60 mins by scintillation proximity assay; format: cell-based
T1 sequence (P30988 whole entry): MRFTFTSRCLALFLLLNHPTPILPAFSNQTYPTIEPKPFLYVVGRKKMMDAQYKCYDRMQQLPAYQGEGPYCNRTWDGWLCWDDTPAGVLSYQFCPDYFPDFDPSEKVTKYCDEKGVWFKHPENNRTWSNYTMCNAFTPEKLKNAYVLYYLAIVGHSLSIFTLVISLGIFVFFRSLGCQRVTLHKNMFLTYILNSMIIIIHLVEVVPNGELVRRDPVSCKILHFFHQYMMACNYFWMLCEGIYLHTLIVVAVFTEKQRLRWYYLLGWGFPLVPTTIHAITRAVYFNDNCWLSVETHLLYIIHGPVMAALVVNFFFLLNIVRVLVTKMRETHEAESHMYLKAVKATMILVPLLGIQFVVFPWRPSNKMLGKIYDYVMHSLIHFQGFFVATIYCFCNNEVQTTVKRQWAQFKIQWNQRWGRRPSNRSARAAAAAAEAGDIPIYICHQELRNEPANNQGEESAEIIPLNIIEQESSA
T1 sequence (O60896 whole entry): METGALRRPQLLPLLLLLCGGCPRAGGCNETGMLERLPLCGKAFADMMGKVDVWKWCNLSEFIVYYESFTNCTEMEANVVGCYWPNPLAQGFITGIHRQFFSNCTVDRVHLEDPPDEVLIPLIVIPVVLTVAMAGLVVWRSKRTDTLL

[12] = target: T1, Amylin receptor AMY3; CALCR/RAMP3; experiment: Agonist activity at human amylin receptor expressed in BHK570 cells co-expressing RAMP3 assessed as increase in intracellular cAMP concentration incubated for 3 hrs in absence of albumin by CRE luciferase reporter gene assay; format: functional, cell-based
Rattus norvegicus [13] = experiment: Reduction in food intake in Sprague-Dawley rat at 3 nmol/kg measured 24 to 48 hrs post dose relative to control; format: functional; set-up: scale not given: the % may be the effect or the level left
Calcitonin receptor [14] = target: T2, Calcitonin receptor (Homo sapiens, UniProt P30988); experiment: Agonist activity at human calcitonin receptor expressed in BHK570 cells assessed as increase in intracellular cAMP concentration incubated for 3 hrs in presence of 10% FBS by CRE luciferase reporter gene assay; format: functional, cell-based
T2 sequence (P30988 whole entry): T1 sequence (P30988 whole entry)

Calcitonin receptor [15] = target: T2, Calcitonin receptor; experiment: Agonist activity at human calcitonin receptor expressed in BHK570 cells assessed as increase in intracellular cAMP concentration incubated for 3 hrs in absence of albumin by CRE luciferase reporter gene assay; format: functional, cell-based
Rattus norvegicus [16] = experiment: Reduction in food intake in Sprague-Dawley rat at 3 nmol/kg measured 0 to 24 hrs post dose relative to control; format: functional; set-up: scale not given: the % may be the effect or the level left
[17] = target: T1, Amylin receptor AMY3; CALCR/RAMP3; experiment: Agonist activity at human amylin receptor expressed in BHK570 cells co-expressing RAMP3 assessed as increase in intracellular cAMP concentration incubated for 3 hrs in presence of 10% FBS by CRE luciferase reporter gene assay; format: functional, cell-based

In the case of CC(C)C[C@H](NC(=O)[C@H](C)NC(=O)[C@H](C)NC(=O)[C@@H](NC(=O)[C@H](CO)NC(=O)[C@H](CC(C)C)NC(=O)[C@H](CCC(=O)O)NC(=O)[C@H](CO)NC(=O)[C@H](C)N)[C@@H](C)O)C(=O)NCC(=O)N[C@@H](CCCNC(=N)N)C(=O)N[C@@H](CC(C)C)C(=O)N[C@@H](CO)C(=O)N[C@@H](C)C(=O)N[C@@H](CCC(=O)O)C(=O)N[C@@H](CC(C)C)C(=O)N[C@@H](Cc1cnc[nH]1)C(=O)N[C@@H](CCC(=O)O)C(=O)N[C@@H](CC(C)C)C(=O)N[C@@H](C)C(=O)N[C@H](C(=O)N[C@@H](CC(C)C)C(=O)N1CCC[C@H]1C(=O)N[C@@H](CCCNC(=N)N)C(=O)N[C@H](C(=O)N[C@@H](CCCCNC(=O)CC[C@H](NC(=O)CCCCCCCCCCCCCCCCCCC(=O)O)C(=O)O)C(=O)N[C@H](C(=O)NCC(=O)N[C@@H](CO)C(=O)NCC(=O)N[C@@H](CO)C(=O)N1CCC[C@H]1C(N)=O)[C@@H](C)O)[C@@H](C)O)[C@@H](C)O, the solubility at 18 h [1] is reported as ≥ 200 µM, the Time [2] is reported as > 45 h and the solubility at 18 h [3] is reported as ≥ 200 µM. The solubility at 18 h [4] was ≥ 200 µM, the solubility at 18 h [5] was ≥ 200 µM and the remaining at 1 µM [6] was 94%. The solubility at 18 h [7] was ≥ 200 µM, the solubility at 18 h [8] was ≥ 200 µM and the solubility at 18 h [9] was ≥ 200 µM. The solubility at 18 h [10] was ≥ 200 µM.
In the case of CC(C)C[C@H](NC(=O)[C@H](C)NC(=O)[C@H](C)NC(=O)[C@@H](NC(=O)[C@H](CO)NC(=O)[C@H](CC(C)C)NC(=O)[C@H](CCC(=O)O)NC(=O)[C@H](CO)NC(=O)[C@H](C)NC(=O)CC[C@H](NC(=O)CCCCCCCCCCCCCCCCC(=O)O)C(=O)O)[C@@H](C)O)C(=O)NCC(=O)N[C@@H](CCCNC(=N)N)C(=O)N[C@@H](CC(C)C)C(=O)N[C@@H](CO)C(=O)N[C@@H](C)C(=O)N[C@@H](CCC(=O)O)C(=O)N[C@@H](CC(C)C)C(=O)N[C@@H](Cc1c[nH]cn1)C(=O)N[C@@H](CCC(=O)O)C(=O)N[C@@H](CC(C)C)C(=O)N[C@@H](C)C(=O)N[C@H](C(=O)N[C@@H](Cc1ccc(O)cc1)C(=O)N1CCC[C@H]1C(=O)N[C@@H](CCCNC(=N)N)C(=O)N[C@H](C(=O)N[C@@H](CCC(=O)O)C(=O)N[C@H](C(=O)NCC(=O)N[C@@H](CO)C(=O)NCC(=O)N[C@@H](CO)C(=O)N1CCC[C@H]1C(N)=O)[C@@H](C)O)[C@@H](C)O)[C@@H](C)O ({C18 diacid-γGlu}-ASELSTAALGRLSAELHELATYPRTETGSGSP-NH2), the Time [2] is reported as > 45 h and the remaining at 1 µM [6] is reported as 100%.
In the case of CC(C)C[C@H](NC(=O)[C@H](C)NC(=O)[C@H](C)NC(=O)[C@@H](NC(=O)[C@H](CO)NC(=O)[C@H](CC(C)C)NC(=O)[C@H](CCC(=O)O)NC(=O)[C@H](CO)NC(=O)[C@H](C)NC(=O)[C@H](CCC(=O)O)NC(=O)CCCCCCCCCCCCCCCCC(=O)O)[C@@H](C)O)C(=O)NCC(=O)N[C@@H](CCCNC(=N)N)C(=O)N[C@@H](CC(C)C)C(=O)N[C@@H](CO)C(=O)N[C@@H](C)C(=O)N[C@@H](CCC(=O)O)C(=O)N[C@@H](CC(C)C)C(=O)N[C@@H](Cc1cnc[nH]1)C(=O)N[C@@H](CCC(=O)O)C(=O)N[C@@H](CC(C)C)C(=O)N[C@@H](C)C(=O)N[C@H](C(=O)N[C@@H](CC(C)C)C(=O)N1CCC[C@H]1C(=O)N[C@@H](CCCNC(=N)N)C(=O)N[C@H](C(=O)N[C@@H](CCC(=O)O)C(=O)N[C@H](C(=O)NCC(=O)N[C@@H](CO)C(=O)NCC(=O)N[C@@H](CO)C(=O)N1CCC[C@H]1C(N)=O)[C@@H](C)O)[C@@H](C)O)[C@@H](C)O ({C18 diacid}-EASELSTAALGRLSAELHELATLPRTETGSGSP-NH2), the solubility at 18 h [1] is reported as ≥ 200 µM, the IC50 [11] is reported as 0.187 nM and the solubility at 18 h [3] is reported as ≥ 200 µM. For the same molecule, the solubility at 18 h [4] was ≥ 200 µM, the solubility at 18 h [5] was ≥ 200 µM and the EC50 [12] was 0.009 nM. For the same molecule, the Activity (Rattus norvegicus [13]) was 46%, the EC50 (Calcitonin receptor [14]) was 0.019 nM and the EC50 (Calcitonin receptor [15]) was 0.006 nM. The solubility at 18 h [7] was ≥ 200 µM, the solubility at 18 h [8] was ≥ 200 µM and the Activity (Rattus norvegicus [16]) was 71%. For the same molecule, the solubility at 18 h [9] was ≥ 200 µM, the solubility at 18 h [10] was ≥ 200 µM and the EC50 [17] was 0.039 nM.
With CC(C)C[C@H](NC(=O)CNC(=O)[C@H](CO)NC(=O)[C@H](CC(C)C)NC(=O)[C@H](CCC(=O)O)NC(=O)CC[C@H](NC(=O)CCCCCCCCCCCCCCCCCCC(=O)O)C(=O)O)C(=O)N[C@@H](CO)C(=O)N[C@H](C(=O)N[C@@H](CC(C)C)C(=O)N[C@H](C(=O)N[C@@H](CC(C)C)C(=O)NCC(=O)N[C@@H](CCCNC(=N)N)C(=O)N[C@@H](CC(C)C)C(=O)N[C@@H](CO)C(=O)N[C@@H](CCC(N)=O)C(=O)N[C@@H](CCC(=O)O)C(=O)N[C@@H](CC(C)C)C(=O)N[C@@H](Cc1cnc[nH]1)C(=O)N[C@@H](CCC(=O)O)C(=O)N[C@@H](CC(C)C)C(=O)N[C@@H](CCC(N)=O)C(=O)N[C@H](C(=O)N[C@@H](Cc1ccc(O)cc1)C(=O)N1CCC[C@H]1C(=O)N[C@@H](CCCNC(=N)N)C(=O)N[C@H](C(=O)NCC(=O)N[C@H](C(=O)NCC(=O)N[C@@H](CO)C(=O)NCC(=O)N[C@H](C(=O)N[C@@H](Cc1ccc(O)cc1)C(N)=O)[C@@H](C)O)[C@@H](C)O)[C@@H](C)O)[C@@H](C)O)C(C)C)[C@@H](C)O ({C20 diacid-γGlu}-ELSGLSTLVLGRLSQELHELQTYPRTGTGSGTY-NH2) the solubility at 18 h [1] was ≥ 200 µM, the IC50 [11] was 2.56 nM and the solubility at 18 h [5] was ≥ 200 µM. The EC50 [12] was 0.025 nM, the Activity (Rattus norvegicus [13]) was 0% and the Activity (Rattus norvegicus [16]) was 32%. For the same molecule, the EC50 [17] was 0.565 nM.
For CC(C)C[C@H](NC(=O)[C@H](C)NC(=O)[C@H](C)NC(=O)[C@@H](NC(=O)[C@H](CO)NC(=O)[C@H](CC(C)C)NC(=O)[C@H](CCC(=O)O)NC(=O)[C@H](CO)NC(=O)[C@H](C)NC(=O)[C@H](CCC(=O)O)NC(=O)CCCCCCCCCCCCCCCCCCC(=O)O)[C@@H](C)O)C(=O)NCC(=O)N[C@@H](CCCNC(=N)N)C(=O)N[C@@H](CC(C)C)C(=O)N[C@@H](CO)C(=O)N[C@@H](C)C(=O)N[C@@H](CCC(=O)O)C(=O)N[C@@H](CC(C)C)C(=O)N[C@@H](Cc1cnc[nH]1)C(=O)N[C@@H](CCC(=O)O)C(=O)N[C@@H](CC(C)C)C(=O)N[C@@H](C)C(=O)N[C@H](C(=O)N[C@@H](CC(C)C)C(=O)N1CCC[C@H]1C(=O)N[C@@H](CCCNC(=N)N)C(=O)N[C@H](C(=O)N[C@@H](CCC(=O)O)C(=O)N[C@H](C(=O)NCC(=O)N[C@@H](CO)C(=O)NCC(=O)N[C@@H](CO)C(=O)N1CCC[C@H]1C(N)=O)[C@@H](C)O)[C@@H](C)O)[C@@H](C)O ({C20 diacid}-EASELSTAALGRLSAELHELATLPRTETGSGSP-NH2), the solubility at 18 h [1] was ≥ 200 µM, the IC50 [11] was 0.24 nM and the solubility at 18 h [3] was ≥ 200 µM. For the same molecule, the solubility at 18 h [4] was ≥ 200 µM, the solubility at 18 h [5] was ≥ 200 µM and the EC50 [12] was 0.011 nM. It also gave an Activity (Rattus norvegicus [13]) of 63.5%, an EC50 (Calcitonin receptor [14]) of 0.026 nM and an EC50 (Calcitonin receptor [15]) of 0.009 nM. The solubility at 18 h [7] was ≥ 200 µM, the solubility at 18 h [8] was ≥ 200 µM and the Activity (Rattus norvegicus [16]) was 55.5%. For the same molecule, the solubility at 18 h [9] was ≥ 200 µM, the solubility at 18 h [10] was ≥ 200 µM and the EC50 [17] was 0.061 nM.
